Experimental data published in the NIST ThermoML archive (doi:10.1016/j.jct.2006.07.023).
Where “and” joins values, the source holds several entries; their conditions need not be identical. Equal entries are not always repeated. Numbers after ± are expanded uncertainties.

What was measured:
[1] = DTA
[2] = Molar enthalpy of transition or fusion; settings: DSC

SMILES	Triple point temperature ([1]; Crystal)	Glass transition temperature [1] [°C]	Triple point temperature ([1]; Metastable crystal) [K]	Molar enthalpy of transition or fusion ([2]; Crystal)	Molar enthalpy of transition or fusion ([2]; Metastable crystal) [kcal/mol]
CCCC(=O)[O-].CCCC(=O)[O-].[Pb+2] [lead(2+) dibutanoate]	346.5 ± 0.7 K and 346.3 ± 0.9 K	1.8 ± 3	322.8 ± 1.1	3.51 kcal/mol and 3.49 kcal/mol	1.84 ± 0.191
CC(=O)[O-].CC(=O)[O-].[Pb+2] [lead(2+) acetate]	452.3 ± 1.6 K	41.2 ± 3		3.78 ± 0.0956 kcal/mol	
CCC(=O)[O-].CCC(=O)[O-].[Pb+2] [lead(2+) dipropanoate]	398.1 ± 1.1 K	25 ± 3		3.13 ± 0.0956 kcal/mol	
